# According to patent publication US11439148B2, “Pyrimidine derivatives” (SYNGENTA PARTICIPATIONS AG, priority 2017, dated 2022):
# Where “and” joins values, the source holds several entries; their conditions need not be identical. Identical values can stand only once.
# Columns and labels:
# Type in all cases: in vivo
# [1] = system: four weed species (ALOMY, AVEFA, LOLPE, SETVI); assay: Adjuvant efficacy with pinoxaden, glasshouse spray test, average over all species; details: pinoxaden EC, mean over 7.5 and 15 g/ha, adjuvant 0.2% v/v (none in No Adjuvant rows), 21 days, average of ALOMY
# Protocol: The efficacy of adjuvants 1-12 as adjuvants for the herbicide pinoxaden were tested in a glasshouse against four weed species, sown into standard soil in pots and cultivated under controlled conditions in a glasshouse (at 20/16° C. day/night; 16 hours light; 65% humidity). Pinoxaden was added to the spray tank as a standard EC (emulsifiable concentrate) formulation.
# The spray tests were also carried out using pinoxaden in conjunction with adjuvants 1-12. The adjuvants were added to the spray solution at a rate of 0.2% v/v unless otherwise stated. All spray solutions also contained 10% w/w of iso-Propanol. The weed species and their BBCH growth stage at spraying were Avena fatua (AVEFA; growth stage 12), Lolium perenne (LOLPE; growth stage 13), Alopecurus myosuroides (ALOMY; growth stage 13), and Setaria viridis (SETVI; growth stage 13-14). Each spray test was replicated three times. The test plants were then grown in a glasshouse under controlled conditions (at 20/16° C. day/night; 16 hours light; 65% humidity) and watered twice a day. The efficacy of the herbicide was assessed visually and expressed as a percentage of the leaf area killed. Samples were assessed at a time period of 21 days following application. The results shown in Table 4 below are mean averages over the two rates of pinoxaden, and the three replicates.
# [2] = system: Digitaria sanguinalis (DIGSA); assay: Adjuvant efficacy with mesotrione, glasshouse spray test; details: mesotrione SC, mean over 30 and 60 g/ha and 3 replicates; adjuvant 0.2% v/v (none in No Adjuvant rows); % leaf area killed, 21 days after application; Tests 1-4 separate runs
# Protocol: (§1) The efficacy of adjuvants 1-12 as an adjuvant for the herbicide mesotrione was tested in a glasshouse against four weed species sown into standard soil in pots and cultivated under controlled conditions in a glasshouse (at 24/18° C. day/night; 16 hours light; 65% humidity). Mesotrione was added to the spray tank as a standard SC (suspension concentrate) formulation.
# (§2) The spray tests were also carried out using mesotrione in conjunction with adjuvants 1-12. The adjuvants were added to the spray solution at a rate of 0.2% v/v unless otherwise stated. All spray solutions also contained 10% w/w of iso-Propanol. The weed species and their BBCH growth stage at spraying were Brachiaria platyphylla (BRAPP; growth stage 13-14) or Brachiaria plantaginea (BRAPL; growth stage 13-14), Commelina benghalensis (COMBE; growth stage 13), Digitaria sanguinalis (DIGSA; growth stage 14), and Polygonum convolvulus (POLCO; growth stage 13-14). Each spray test was replicated three times.
# (§3) The test plants were then grown in a glasshouse under controlled conditions (at 24/18° C. day/night; 16 hours light; 65% humidity) and watered twice a day. The efficacy of the herbicide was assessed visually and expressed as a percentage of the leaf area killed. Samples were assessed at a time period of 21 days following application. The results shown in Table 3 below are mean averages over the two rates of mesotrione and the three replicates.
# [3] = system: Polygonum convolvulus (POLCO); assay: as above; details: mesotrione SC, mean over 30 and 60 g/ha and 3 replicates; adjuvant 0.2% v/v (none in No Adjuvant rows); % leaf area killed, 21 days after application; Tests 1-4 separate runs
# Protocol: as §1, §2, §3
# [4] = system: four weed species (ABUTH, CHEAL, IPOHE, SETVI); assay: Adjuvant efficacy with fomesafen, glasshouse spray test, average over all species; details: fomesafen sodium salt SL, mean over 100 and 200 g/ha, adjuvant 0.2% v/v (none in No Adjuvant rows), 21 days, average of ABUTH
# Protocol: (§4) The efficacy of adjuvants 1-12 as adjuvants for the herbicide fomesafen (as the sodium salt) were tested in a glasshouse against four weed species, sown into standard soil in pots and cultivated under controlled conditions in a glasshouse (at 24/18° C. day/night; 16 hours light, 65% humidity). Fomesafen sodium salt was added to the spray tank as a standard SL (soluble concentrate) formulation.
# (§5) The spray tests were also carried out using fomesafen in conjunction with adjuvants 1-12. Unless otherwise stated, the adjuvants were added to the spray solution at a rate of 0.2% v/v. All spray solutions also contained 12.5% v/v of iso-Propanol to normalise the retention of the sprays on the hydrophobic plant surfaces. The weed species and their BBCH growth stage at spraying were Abutilon theophrasti (ABUTH; growth stage 12-13), Chenopodium album (CHEAL; growth stage 15), Ipomea hederacea (IPOHE; growth stage 12), and Setaria viridis (SETVI; growth stage 14). Each spray test was replicated three times. The test plants were then grown in a glasshouse under controlled conditions (at 24/18° C. day/night; 16 hours light; 65% humidity) and watered twice a day.
# (§6) The efficacy of the herbicide was assessed visually and expressed as a percentage of the leaf area killed. Samples were assessed at a time period of 21 days following application. The results shown in Table 2 below are mean averages over the two rates of fomesafen, the three replicates […].
# [5] = system: four weed species (ABUTH, CHEAL, DIGSA, SETVI); assay: Adjuvant efficacy with nicosulfuron, glasshouse spray test, average over all species; details: nicosulfuron WG, mean over 15 and 60 g/ha, adjuvant 0.2% v/v (none in No Adjuvant rows), 21 days, average of ABUTH
# Protocol: The efficacy of adjuvants 1-12 as adjuvants for the herbicide nicosulfuron were tested in a glasshouse against four weed species sown into standard soil in pots and cultivated under controlled conditions in a glasshouse (at 24/18° C. day/night; 16 hours light; 65% humidity). Nicosulfuron was added to the spray tank as a standard WG (water dispersible granule) formulation.
# The spray tests were also carried out using nicosulfuron in conjunction with adjuvants 1-12. The adjuvant was added to the spray solution at a rate of 0.2% v/v. All spray solutions also contained 12.5% v/v of iso-Propanol. The weed species and their BBCH growth stage at spraying were Abutilon theophrasti (ABUTH; growth stage 13), Chenopodium album (CHEAL; growth stage 13-14), Digitaria sanguinalis (DIGSA; growth stage 11), and Setaria viridis (SETVI; growth stage 13). Each spray test was replicated three times. The test plants were then grown in a glasshouse under controlled conditions (at 24/18° C. day/night; 16 hours light; 65% humidity) and watered twice a day. The efficacy of the herbicide was assessed visually and expressed as a percentage of the leaf area killed. Samples were assessed at a time period of 21 days following application. The results shown in Table 1 below are mean averages over the two rates of nicosulfuron, and the three replicates.
# Setaria viridis (SETVI) = assay: Adjuvant efficacy with fomesafen, glasshouse spray test; details: fomesafen sodium salt SL, mean over 100 and 200 g/ha and 3 replicates; adjuvant 0.2% v/v (none in No Adjuvant rows); % leaf area killed, 21 days after application; Tests 1-4 separate runs
# Protocol: as §4, §5, §6
# Ipomea hederacea (IPOHE) = assay: as above; details: fomesafen sodium salt SL, mean over 100 and 200 g/ha and 3 replicates; adjuvant 0.2% v/v (none in No Adjuvant rows); % leaf area killed, 21 days after application; Tests 1-4 separate runs
# Protocol: as §4, §5, §6
# [6] = system: Abutilon theophrasti (ABUTH); assay: as above; details: fomesafen sodium salt SL, mean over 100 and 200 g/ha and 3 replicates; adjuvant 0.2% v/v (none in No Adjuvant rows); % leaf area killed, 21 days after application; Tests 1-4 separate runs
# Protocol: as §4, §5, §6
# [7] = system: Chenopodium album (CHEAL); assay: as above; details: fomesafen sodium salt SL, mean over 100 and 200 g/ha and 3 replicates; adjuvant 0.2% v/v (none in No Adjuvant rows); % leaf area killed, 21 days after application; Tests 1-4 separate runs
# Protocol: as §4, §5, §6
SMILES,Mean % Herbicidal Activity Average over all Species [1] [%],Mean % Herbicidal Activity DIGSA [2] [%],Mean % Herbicidal Activity POLCO [3] [%],Mean % Herbicidal Activity Average over all Species [4],Mean % Herbicidal Activity Average over all Species [5] [%],Mean % Herbicidal Activity SETVI (Setaria viridis (SETVI)),Mean % Herbicidal Activity IPOHE (Ipomea hederacea (IPOHE)),Mean % Herbicidal Activity ABUTH [6],Mean % Herbicidal Activity CHEAL [7]
CCCCCCCCC=CCCCCCCCCOc1cc(OCCOCCOCCOCCOCCOCCOCCOCCOCCOCCOC)ncn1 [Adjuvant 10],50,84,95,68% and 46%,81,65% and 17%,92% and 50%,56% and 28%,60% and 88%
CCCCCCCCC=CCCCCCCCCOc1cc(OCCOCCOCCOCCOCCOCCOCCOCCOCCOCCOCCOCCOCCOCCOCCOCCOCCOCCOCCOCCOC)ncn1 [Adjuvant 11],38,83,92,66%,82,39%,98%,48%,80%
CCCCCCCCCCCCOc1cc(OCC(C)OCC(C)OCC(C)OC)ncn1 (stereo not drawn) [Adjuvant 12],70,84,98,82%,85,77%,98%,74%,80%
